Patent US12617762B2, “Carboxy derivatives with antiinflamatory properties” (Sitryx Therapeutics Limited, priority 2019, dated 2026)
Read-outs that look alike come from different tables or passages of the source.

Assays:
[1] = Hepatocyte stability assay, mouse; type: in vitro ADME; conditions: mouse, hepatocytes; for hepatocyte CLint at 10 μM: Hepatocyte stability Clint; for half-life at 10 μM: Hepatocyte stability T½
Method in brief: (§1)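 Thawed cryopreserved hepatocytes (viability >70%) at 0.5×10^6 cells/mL in Leibovitz buffer were preincubated at 37° C, then given 10 μM compound (0.1% DMSO) in duplicate. Samples at 0–60 min were quenched in acetonitrile and analysed by LC-MS/MS. Intrinsic clearance and half-life were derived from ln % remaining versus time.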

[2] = tested on: NRF2 (nuclear factor erythroid 2-related factor 2); experiment: NRF2 +/-GSH activation assay (DiscoverX PathHunter NRF2 translocation kit, U2OS cells); type: cell-based; conditions: for NRF2 activation +GSH Emax / NRF2 activation −GSH Emax: normalised to DMF high control
Method in brief: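 Activation is expressed as percent of plate DMF (high) versus no-DMF (low) controls, from luminescence after 6 h compound exposure at 37 °C of U2OS PathHunter cells. The +GSH condition used compound pre-incubated 30 min in 6 mM working GSH; −GSH cells received compound directly.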

[3] = tested on: IL-1β cytokine output from THP-1s; experiment: THP-1 AlphaLISA IL-1β cytokine inhibition assay; type: cell-based; conditions: Homo sapiens, THP-1, differentiated THP-1 cells, LPS then nigericin
Method in brief: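 IL-1β release by AlphaLISA, expressed as % inhibition against +/− LPS controls on each plate. Differentiation: PMA, 72 h. Sequence: 30 min compound pre-treatment, LPS 24 h, Nigericin 1 h before supernatant harvest, all at 37° C./5% CO2.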

[4] = Hepatocyte stability assay, human; type: in vitro ADME; conditions: human, hepatocytes; for hepatocyte CLint at 10 μM: Hepatocyte stability Clint; for half-life at 10 μM: Hepatocyte stability T½
Method in brief: as §1

[5] = tested on: IL-6 cytokine output from THP-1s; experiment: THP-1 AlphaLISA IL-6 cytokine inhibition assay; type: cell-based; conditions: Homo sapiens, LPS then nigericin
Method in brief: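 THP-1 cells differentiated with PMA for 72 h, then pre-incubated with compound 30 min, stimulated with LPS 24 h, then Nigericin 1 h, all at 37° C. Supernatant IL-6 measured by AlphaLISA. Percentage inhibition normalized to +/− LPS plate controls.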

[6] = +GSH, 30 minute compound-GSH pre-incubation, read-out: NRF2 activation +GSH EC50
[7] = −GSH, U2OS PathHunter cells, 6 hours compound treatment, read-out: NRF2 activation −GSH EC50
[8] = THP-1, differentiated THP-1 cells

Row | Compound | hepatocyte CLint at 10 μM [1] [µL/min/1e6 cells] | half-life at 10 μM [1] [min] | EC50 [2, 6] [µM] | NRF2 activation +GSH Emax ([2]; +GSH) [%] | EC50 [2, 7] [µM] | NRF2 activation −GSH Emax ([2]; −GSH) [%] | IC50 [3] [µM] | hepatocyte CLint at 10 μM [4] [µL/min/1e6 cells] | half-life at 10 μM [4] [min] | IC50 [5, 8] [µM] | IC50 ([5]; differentiated THP-1 cells) [µM]
1 | C=C(Cc1nc(Cc2ccc(-c3ccc(Cl)cc3)cc2)no1)C(=O)O [Example 19, 2-((3-((4′-chloro-[1,1′-biphenyl]-4-yl)methyl)-1,2,4-oxadiazol-5-yl)methyl)acrylic acid] | > 460 | < 3 | 7.4 | 140 | 2.5 | 206 | 77 | 63 | 20 | 3.3 | 
2 | C=C(C(=O)O)C(O)c1nc(CCCCCCCC)no1 (stereo not drawn) [Example 108, 2-(hydroxy(3-octyl-1,2,4-oxadiazol-5-yl)methyl)acrylic acid] | 438 | 4 | 29 | 213 | 19.7 | 299 | 18.4 | 10 | 163 | 8.3 | 
3 | C=C(Cc1noc(CCCCCCCC)n1)C(=O)O [Example 3, 2-((5-octyl-1,2,4-oxadiazol-3-yl)methyl)acrylic acid] | 117 | 12 | 6.9 | 199 | 3.7 | 218 | 14.6 | 110 | 15 | 4.4 | 
4 | C=C(Cc1nc(C(F)(F)c2ccc(CCCC)cc2)no1)C(=O)O [Example 91, 2-((3-((4-butylphenyl)difluoromethyl)-1,2,4-oxadiazol-5-yl)methyl)acrylic acid] | 320 | 6 | 3.4 | 190 | 3.2 | 231 | 3.8 | 74 | 21 |  | 2.4
5 | C=C(Cc1nc(Cc2ccc(C3CCCC3)cc2)no1)C(=O)O [Example 112, 2-((3-(4-cyclopentylbenzyl)-1,2,4-oxadiazol-5-yl)methyl)acrylic acid] | 160 | 12 | 10.7 | 283 | 7.3 | 284 | 14.2 | 25 | 61 | 4.4 | 
6 | C=C(Cc1nc(Cc2ccc(CCCC)cc2)no1)C(=O)O [Example 20, 2-((3-(4-butylbenzyl)-1,2,4-oxadiazol-5-yl)methyl)acrylic acid] | 427 | 4 | 3 | 146 | 2.9 | 206 | 14.7 | 70 | 24 | 2.7 | 
7 | C=C(Cc1nc(C(F)(F)c2ccc(Br)cc2)no1)C(=O)O [Example 90, 2-((3-((4-bromophenyl)difluoromethyl)-1,2,4-oxadiazol-5-yl)methyl)acrylic acid] | 34 | 56 | 44 | 130 | 45.3 | 172 | 3.4 | 7 | 206 | 15.7 | 
8 | C=C(Cc1nc(Cc2ccc(C(F)(F)CCCC)cc2)no1)C(=O)O [Example 93, 2-((3-(4-(1,1-difluoropentyl)benzyl)-1,2,4-oxadiazol-5-yl)methyl)acrylic acid] | > 460 | < 3 | 14.3 | 190 | 12.6 | 224 | 16.1 | 40 | 38 | 8.7 | 
9 | C=C(Cc1nc([C@H](C)CCCCCC)no1)C(=O)O [Example 40, (R)-2-((3-(octan-2-yl)-1,2,4-oxadiazol-5-yl)methyl)acrylic acid] | 82 | 20 | 27.5 | 81 | 25.3 | 168 | 27 | 21 | 66 | 18.1 | 
